The source made the active and inactive calls. The calls are words filed in the database; no cut-off is given here.
Tests used:
[1] = molecular target: T1, Kallikrein-5 (Homo sapiens, UniProt Q9Y337); experiment: Inhibition of human kallikrein 5 using Abz-KLRSSKQ-EDDnp as substrate by Lineweaver-Burk plot analysis
T1 sequence (Q9Y337 whole entry): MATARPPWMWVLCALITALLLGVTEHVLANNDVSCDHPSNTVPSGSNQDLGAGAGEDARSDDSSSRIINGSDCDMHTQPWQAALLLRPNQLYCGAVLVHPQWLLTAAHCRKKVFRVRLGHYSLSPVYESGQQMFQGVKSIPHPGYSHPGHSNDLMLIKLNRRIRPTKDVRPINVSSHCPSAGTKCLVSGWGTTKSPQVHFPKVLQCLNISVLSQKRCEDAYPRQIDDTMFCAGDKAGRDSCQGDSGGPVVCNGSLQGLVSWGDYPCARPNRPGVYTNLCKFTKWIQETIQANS

[2] = molecular target: T2, Kallikrein-7 (Homo sapiens, UniProt P49862); experiment: Inhibition of human kallikrein 7 using Abz-KLYSSKQ-EDDnp as substrate by spectrofluorimetric assay
Target sequence in this assay (P49862 whole entry): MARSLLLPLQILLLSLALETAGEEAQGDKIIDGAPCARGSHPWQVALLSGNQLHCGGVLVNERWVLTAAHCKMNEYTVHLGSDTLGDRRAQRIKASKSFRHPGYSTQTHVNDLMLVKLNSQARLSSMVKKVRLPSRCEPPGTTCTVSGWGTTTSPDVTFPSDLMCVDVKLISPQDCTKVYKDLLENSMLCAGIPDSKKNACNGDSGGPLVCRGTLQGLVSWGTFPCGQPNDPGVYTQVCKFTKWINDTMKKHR

[3] = molecular target: T1, Kallikrein-5; experiment: Inhibition of human kallikrein 5 using Abz-KLRSSKQ-EDDnp as substrate by spectrofluorimetric assay
[4] = molecular target: T2, Kallikrein-7; experiment: Inhibition of human kallikrein 7 using Abz-KLYSSKQ-EDDnp as substrate by Lineweaver-Burk plot analysis
Target sequence in this assay (P49862 whole entry): as above

[5] = molecular target: T2, Kallikrein-7; experiment: Competitive inhibition of human kallikrein 7 using Abz-KLYSSKQ-EDDnp as substrate by Lineweaver-Burk plot analysis
Target sequence in this assay (P49862 30-253 limits assumed): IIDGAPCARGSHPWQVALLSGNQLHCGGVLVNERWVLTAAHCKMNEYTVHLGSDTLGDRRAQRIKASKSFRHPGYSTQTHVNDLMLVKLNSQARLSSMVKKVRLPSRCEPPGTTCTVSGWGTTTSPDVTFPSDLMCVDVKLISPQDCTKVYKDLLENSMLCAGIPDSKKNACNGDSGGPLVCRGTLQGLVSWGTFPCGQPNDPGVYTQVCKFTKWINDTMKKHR

| SMILES | Ki [1] [µM] | IC50 [2] [µM] | IC50 [3] [µM] | Ki [4] [µM] | inhibition [5] |
| --- | --- | --- | --- | --- | --- |
| COc1cc2cc3c(c(O)c2c(O)c1-c1c(OC)cc2cc4c(c(O)c2c1O)C(=O)O[C@H](C)C4)C(=O)O[C@H](C)C3 [VIOXANTHIN] | 22.9 | 135 | 53.7 | 37.2 |  |
| COc1cc(O)c2c(O)c3c(=O)oc(C)cc3c(OC)c2c1 [PAEPALANTINE] | 47.5 | 166 | 367 | 70.7 |  |
| COc1cc2c(OC)c3cc(C)oc(=O)c3c(O)c2c(O)c1-c1c(OC)cc2c(OC)c3cc(C)oc(=O)c3c(O)c2c1O | 24.4 | 112 | 72.9 | 12.2 | Active |

Reference: ChEMBL document CHEMBL1833973, “Biological evaluation and docking studies of natural isocoumarins as inhibitors for human kallikrein 5 and 7” (Bioorg Med Chem Lett, 2011)
